Assay results from US8765684B2, “Solid materials of {[(2S,5R,8S,11S)-5-benzyl-11-(3-guanidino-propyl)-8-isopropyl-7-methyl-3,6,9,12,15-pentaoxo-1,4,7,10,13-pentaaza-cyclopentadec-2-yl]-acetic acid} and methods for obtaining them” (Merck Patent GmbH, priority 2009, dated 2014).
“And” between values parts separate entries of the source, which are not always exact repeats. Identical values can stand only once.

How the values were obtained:
[1] = Competitive slurry conversion of pseudopolymorphic form and form A1 (1:1) in Water/Methanol and Water/Ethanol mixtures; format: physicochemical; settings: 1:1 pseudopolymorphic form + A1
Procedure: b) Additionally, crystalline tetrasolvates according invention and especially crystalline forms S1 and S2 can be manufactured by competitive slurry conversion experiments with a mixture of a pseudopolymorphic form (for example S1, S2, S3 or mixtures of these) with form A1 (1:1) in Water/Methanol and Water/Ethanol mixtures with different alcohol contents at different temperatures, respectively.
(§1) Approx. 20 mg of a pseudopolymorphic form (for example S1, S2, S3 or mixtures of these) and 20 mg of form A1 of Cilengitide are dispersed in 300 μl Water/alcohol mixture at 0° C. or room temperature (25° C.). The dispersion is stirred for 24 h and additionally for 3 weeks at RT (25° C.) (long-term experiment) by a magnetic stirrer and finally filtered
Approx. 20 mg of a pseudopolymorphic form (for example S1, S2, S3 or mixtures of these) and 20 mg of form A1 of Cilengitide are dispersed in 300 μl Water/alcohol mixture at 50° C. The dispersion is stirred for 24 h by a magnetic stirrer and finally filtered.
Additionally form A1 can be manufactured by competitive slurry conversion experiments with a mixture of a pseudopolymorphic form (for example S1, S2, S3 or mixtures of these) and form A1 (1:1) in Water/Methanol and Water/Ethanol mixtures with different alcohol contents at different temperatures. In the following table the conditions for the experiments leading to the pure form A1 are listed.
as §1, with “C.,” for “C. or”, “and 50° C.” for “(25° C.).”, “filtered.” for “filtered”

[2] = Conditioning of amorphous Cilengitide under mixed water-ethanol atmospheres (stoichiometry by KF, HS-GC, NMR); format: physicochemical
Source text: Stoichiometries as determined by Karl-Fischer titration (KF) for quantification of water and head space gas-chromatography (HS-GC) (and nuclear magnetic resonance spectroscopy (NMR)) for quantification of ethanol are depicted in Table 3. In the table also points representing stochiometries with more than 4 molecules of water per molecule of Cilengitide are visible. As there is no space for more than 4 molecules of water in the crystal lattice excess amounts of more than 4 molecules of water represent adsorbed moisture.
Also the modifications and the lattice parameters from indexing of the diffractograms are compiled in Table 3.

[3] = format: physicochemical
Procedure: In the respective dynamic vapor sorption experiments discussed in more detail herein using ethanol vapor at 98% relative saturation for the Dihydrate-diethanolate/crystalline form S2 at 25° C. starting with the tetrahydrate a mass gain of 17% has been obtained. This is in good agreement with the above shown results for the tetraethanolate (calculated 117.0%, i.e. 17.0% of mass gain). Preferably, the tetrasolvates according to the invention, more preferably the Dihydrate-diethanolate, the Dihydrate-ethanolate, the Dihydrate-monoethanolate, the Diethanolate and/or the desolvates thereof, and especially the crystalline form S2 can be characterised, alternatively or additionally, by dynamic vapour experiments using water vapour and/or methanol vapour. The results can be obtained by standard techniques as described in Rolf Hilfiker, ‘Polymorphism in the Pharmaceutical Industry’, Wiley-VCH. Weinheim 2006 (Chapter 9: Water Vapour Sorption, and references therein). […] Upon water vapour adsorption, an assembly of water molecules in the lattice is observed, with a maximum weight gain of approx. 6.4 wt % at elevated rh. In the second desorption cycle a total mass loss of approx. 9.2 wt % is observed. For a Dihydrate Di-Ethanolate of the compound of formula I, the calculated Ethanol content equals 12.5 wt %. […] Thus, crystalline form S2 is a crystalline Ethanol solvate form or a mixed water/ethanol solvate form, preferably selected from the Dihydrate-ethanolate, the Dihydrate-monoethanolate, the Diethanolate and/or the desolvates thereof, which can be obtained e.g. via Ethanol Vapour Sorption, preferably via Ethanol Vapour Sorption starting with a hydrate structure, such as the hydrates according to the invention and especially the tetrahydrate according to the invention, i.e. crystalline form S3. From the Ethanol Vapour Sorption curve as shown in FIG. 21 and as discussed above, it can be seen that at elevated Ethanol partial pressure, approx. 17 wt % Ethanol are taken up by the sample.

[4] = per 1 mol Cil, EtOH liquid phase 10 v %
[5] = per 1 mol Cil, EtOH liquid phase 20 v %
[6] = per 1 mol Cil, EtOH liquid phase 50 v %
[7] = per 1 mol Cil, EtOH liquid phase 70 v %
[8] = per 1 mol Cil, EtOH liquid phase 80 v %
[9] = per 1 mol Cil, EtOH liquid phase 85 v %
[10] = per 1 mol Cil, EtOH liquid phase 90 v %
[11] = per 1 mol Cil, EtOH liquid phase 95 v %
[12] = per 1 mol Cil, EtOH liquid phase 100 v %

Substance: cyclo-(Arg-Gly-Asp-DPhe-NMe-Val) [crystalline form S2]
- Ethanol in the mixture with Water leading to form S2 ([1]; 0° C. for 1 day): 20-80 v %
- Ethanol in the mixture with Water leading to form S2 ([1]; RT for 3 weeks): 40-70 v %
- Ethanol in the mixture with Water leading to form S2 ([1]; RT for 1 day): 40-80 v %
- EtOH HS-GC ([2]; EtOH liquid phase 10 v %): 3.2 wt %
- H2O KF ([2]; EtOH liquid phase 10 v %): 9.5 wt %
- Σ TG ([2]; EtOH liquid phase 10 v %): 12.5 wt %
- EtOH HS-GC ([2]; EtOH liquid phase 20 v %): 4.3 wt %
- H2O KF ([2]; EtOH liquid phase 20 v %): 8.4 wt %
- Σ TG ([2]; EtOH liquid phase 20 v %): 13.0 wt %
- EtOH HS-GC ([2]; EtOH liquid phase 50 v %): 6.9 wt % and 6.2 wt %
- H2O KF ([2]; EtOH liquid phase 50 v %): 7.8 wt % and 6.8 wt %
- Σ TG ([2]; EtOH liquid phase 50 v %): 13.7 wt % and 12.6 wt %
- EtOH HS-GC ([2]; EtOH liquid phase 70 v %): 6.4 wt %
- H2O KF ([2]; EtOH liquid phase 70 v %): 6.2 wt %
- Σ TG ([2]; EtOH liquid phase 70 v %): 12.4 wt %
- EtOH HS-GC ([2]; EtOH liquid phase 80 v %): 6.7 wt %
- H2O KF ([2]; EtOH liquid phase 80 v %): 5.9 wt %
- Σ TG ([2]; EtOH liquid phase 80 v %): 12.8 wt %
- EtOH HS-GC ([2]; EtOH liquid phase 85 v %): 9.1 wt %
- H2O KF ([2]; EtOH liquid phase 85 v %): 4.1 wt %
- Σ TG ([2]; EtOH liquid phase 85 v %): 12.9 wt %
- EtOH HS-GC ([2]; EtOH liquid phase 90 v %): 12.5 wt %
- H2O KF ([2]; EtOH liquid phase 90 v %): 1.7 wt % and 1.2 wt %
- Σ TG ([2]; EtOH liquid phase 90 v %): 13.8 wt % and 13.6 wt %
- EtOH HS-GC ([2]; EtOH liquid phase 95 v %): 13.1 wt %
- H2O KF ([2]; EtOH liquid phase 95 v %): 0.4 wt %
- Σ TG ([2]; EtOH liquid phase 95 v %): 13.7 wt %
- EtOH HS-GC ([2]; EtOH liquid phase 100 v %): 13.6 wt %
- H2O KF ([2]; EtOH liquid phase 100 v %): 0.7 wt %
- Σ TG ([2]; EtOH liquid phase 100 v %): 14.0 wt %
- EtOH HS-GC [2, 4]: 0.5 mol
- EtOH NMR [2, 4]: 0.5 mol
- H2O KF [2, 4]: 3.6 mol
- EtOH HS-GC [2, 5]: 0.6 mol
- EtOH NMR [2, 5]: 0.7 mol
- H2O KF [2, 5]: 3.1 mol
- EtOH HS-GC [2, 6]: 1.0 mol and 0.9 mol
- EtOH NMR [2, 6]: 1.0 mol
- H2O KF [2, 6]: 3.0 mol and 2.5 mol
- EtOH HS-GC [2, 7]: 0.9 mol
- H2O KF [2, 7]: 2.3 mol
- EtOH HS-GC [2, 8]: 1.0 mol
- H2O KF [2, 8]: 2.2 mol
- EtOH HS-GC [2, 9]: 1.3 mol
- H2O KF [2, 9]: 1.5 mol
- EtOH HS-GC [2, 10]: 1.9 mol
- H2O KF [2, 10]: 0.6 mol and 0.5 mol
- EtOH HS-GC [2, 11]: 1.9 mol
- H2O KF [2, 11]: 0.2 mol
- EtOH HS-GC [2, 12]: 2.0 mol
- EtOH NMR [2, 12]: 2.0 mol
- H2O KF [2, 12]: 0.3 mol
- Thermodynamic stability of the form [3]: thermodynamically stable form
- Ethanol taken up by the sample ([3]; elevated Ethanol partial pressure, starting with a hydrate structure): approx. 17 wt %
- Mass gain ([3]; ethanol vapor at 98% relative saturation, 25° C., starting with the tetrahydrate): 17%
